Entries after “also recorded” stand apart in the source; their conditions may differ.
Test system: C57BL/6 mice subjected to desiccating stress
Assay: Corneal OGD staining in murine desiccating stress model
Assay type: in vivo, mouse
Protocol: Female C57BL/6 mice, aged 6 to 8 weeks, were subjected to DS for 5 days (DS5) as described previously (de Paiva et al., 2006b; Niederkorn et al., 2006). Topical bilateral treatment with 1 eye drop per eye (2 μL volume) or subcutaneous injection (4 μL volume), 2 times per day, was initiated on day 1 concurrently with DS and continued through day 4. Treatment with the compound of formula I or dexamethasone phosphate 0.1% was compared to correspondingly treated vehicle controls. Mice were randomized to receive one of the test articles. Control mice were kept in a non-stressed (NS) environment maintained at 50-75% relative humidity without exposure to airflow or scopolamine and were not treated with test or control article. Treatment effects were assessed on corneal staining with Oregon Green Dextran (OGD); expression of inflammatory markers in ocular surface tissues by real time PCR; cell population analysis in draining cervical lymph nodes by FACS analysis; conjunctival T cell infiltration by immunohistochemistry.
On the morning of the 5th day, mice received one s.c. dose of scopolamine. Two hours later corneal staining was assessed using Oregon Green Dextran (OGD-488), which is a conjugated fluorescent dye of a 70 kDa molecular size (Invitrogen-Molecular Probes) as previously described (de Paiva et al., 2006b). The procedure consisted of instillation of 0.5 μL of OGD on the cornea using a glass capillary pipette, 1 minute before euthanasia. Mice were euthanized by inhalation of isoflurane gas followed by cervical dislocation. Eyes were then rinsed with 2 mL of BSS. Excess liquid was carefully blotted from the ocular surface with filter papers without touching the cornea. Digital pictures of both eyes were taken under 470 nm excitation and 488 nm emission wave lengths using a Nikon SMZ-1500 stereo microscope, with an exposure time of 2 seconds. Both eyes from each animal were evaluated; the right eye always first followed by the left eye. The mean intensity in the central cornea was evaluated from digital images using NIS Elements (version 3.0) by placing a fixed region of interest (a 2-mm diameter circle) on the central cornea. The mean intensity of the fluorescence was read by the software and stored in a database (Excel, Microsoft). This fluorescence measurement in the central ring was done independently by 2 masked observers, for each mouse eye. By the conclusion of the experiment, results were averaged from both observers using all data collected during all study weeks (Excel, Microsoft). Results are presented as geometric mean±95% confidence interval of gray levels.
Due to skewed distribution of OGD data, the analysis was done on the log 10 scale to make the data more normally distributed. Log 10 OGD data was averaged across two observers and the left and right eyes. The mixed effects ANOVA model included treatment group as a fixed effect and week as a random effect. 95% and 99% confidence intervals were constructed for the disease (5 day DS vs untreated group kept in separate vivarium) and compound treatment effects (treatment vs vehicle). As these comparisons were all pre-planned (comparing each treatment to its vehicle group), no adjustment was made for multiplicity. […] T cell density was calculated for each section and averaged across sections for each animal. […]

With Cc1ccccc1OCC(=O)N[C@@H](CC(C)C)C(=O)N[C@@H](Cc1ccc(OC(=O)N2CCC(C(N)=O)CC2)cc1)C(=O)O [GW559090, (2S)-3-[4-({[4-(Aminocarbonyl)-1-piperidinyl]carbonyl}oxy)phenyl]-2-[((2S)-4-methyl-2-{[2-(2-methylphenoxy)acetyl]amino}pentanoyl)amino]propanoic acid] the “OGD intensity score (corneal barrier disruption)” value (subcutaneous 120 μg 2 times per day, 5 days DS) was “not observed”, the “OGD intensity score (corneal staining / corneal barrier disruption)” value (topical bilateral 2 times per day, 5 days DS, vs vehicle (GW559090 1-30 mg/mL; Dex 0.1%), listed as compound of formula I) was “significant decrease; also recorded: significantly decreased; also recorded: dose-dependently prevents” and the “Most efficacious concentration on OGD intensity score” value (topical, 1 to 30 mg/mL investigated) was 30 mg/mL.

From US10413535B2, “Pharmaceutical compositions comprising an integrin ALPHA4 antagonist for use in treating ocular inflammatory conditions” (AXEROVISION, INC., priority 2015, dated 2019)
